Experiments:
[1] = system: combined chronic inflammatory pain and neuropathic pain; assay: Combination of chronic inflammatory pain and neuropathic pain, mechanical allodynia; type: in vivo, mice; conditions: i.p. pre-treatment
Procedure: The mice used in this work were C57B1/6 strain adults (8 weeks old) and AC1 knockout mice of C57B1/6 background (Wei et al., 2002; Neuron). The animals were housed on a 12 h: 12 h light: dark cycle with food and water available ad libidum. All the protocols were in accordance with the Animal Care Committee of the University of Toronto. Both wild type and the knockouts were well groomed. Experimenters were blind to genotype. A muscle model of mechanical allodynia developed originally to study chronic pain (Sluka et al., 2001) was adapted for these experiments. Mice were briefly anaesthetized under halothane. 20μ liters carrageenan (3%, in normal saline pH 7.2) was injected intramuscularly deep into the left gastronemius muscle. Normal saline was used as a control. Injections were carried out on days 1 and 5. Behavioral nociceptive responses were measured on days 1, 2, 5 (before and after injection), 14 and 28. […] Mechanical allodynia was assessed based on the responsiveness of the hind paw to the application of von Frey filaments (Stoelting, Wood Dale, Ill.) to the point of bending. […] Ten trials were carried out each time at an interval of 5 minutes and the results were expressed as a percentage of positive responses. […] The effect of AC1 inhibition was assessed on maximal mechanical allodynia over the dorsum of the foot on the ipsilateral side of ligation on day 7. […]

neuropathic pain = assay: Neuropathic pain (common peroneal nerve ligation), mechanical allodynia; type: in vivo, mice; conditions: 0.1 and 1 mg/kg body weight
Procedure: The mice used in this work were C57B1/6 strain adults (8 weeks old) and AC1 knockout mice of C57B1/6 background (Wei et al., 2002; Neuron). The animals were housed on a 12 h: 12 h light: dark cycle with food and water available ad libidum. All the protocols were in accordance with the Animal Care Committee of the University of Toronto. Both wild type and the knockouts were well groomed. Experimenters were blind to genotype. Mice were placed in a plexi-glass restrainer and allowed to acclimate for 30 minutes prior to testing. Mechanical allodynia was assessed based on the responsiveness of the hind paw to the application of von Frey filaments (Stoelting, Wood Dale, Ill.) to the point of bending. Positive responses include licking, biting and sudden withdrawing of the hind paw. Experiments were carried out to characterize the threshold stimulus. […] This filament was then used to test mechanical allodynia. Ten trials were carried out each time at an interval of 5 minutes and the results were expressed as a percentage of positive responses. Positive responses included prolonged hind paw withdrawal followed by licking or scratching. Neuropathic pain was induced by ligating the common peroneal nerve as previously known in the art. […] The effect of AC1 inhibition was assessed on maximal mechanical allodynia over the dorsum of the foot on the ipsilateral side of ligation on day 7. […]

[2] = system: acute inflammatory muscle pain; assay: Formalin lick test for acute inflammatory muscle pain; type: in vivo, mice
Procedure: The mice used in this work were C57B1/6 strain adults (8 weeks old) and AC1 knockout mice of C57B1/6 background (Wei et al., 2002; Neuron). The animals were housed on a 12 h: 12 h light: dark cycle with food and water available ad libidum. All the protocols were in accordance with the Animal Care Committee of the University of Toronto. Both wild type and the knockouts were well groomed. Experimenters were blind to genotype. Under brief halothane anesthesia, 10 μL of 5% formalin was injected to the left gastronemius muscle. The needle was directed from the lateral side to avoid any bony penetration and the tip was stopped at the middle of the muscle belly. The total time spent licking or biting the injected leg including the thigh and the paw was recorded and totaled every 5 minutes for a period of 2 hours. To study the effect of test compounds on behavior, each compound to be tested was injected intra-peritoneally 30 minutes before the intramuscular injection of formalin.

[3] = system: chronic inflammatory muscle pain; assay: Chronic inflammatory muscle pain (intramuscular carrageenan), mechanical allodynia by von Frey filament; type: in vivo, mice
Procedure: The mice used in this work were C57B1/6 strain adults (8 weeks old) and AC1 knockout mice of C57B1/6 background (Wei et al., 2002; Neuron). The animals were housed on a 12 h: 12 h light: dark cycle with food and water available ad libidum. All the protocols were in accordance with the Animal Care Committee of the University of Toronto. Both wild type and the knockouts were well groomed. Experimenters were blind to genotype. A muscle model of mechanical allodynia developed originally to study chronic pain (Sluka et al., 2001) was adapted for these experiments. Mice were briefly anaesthetized under halothane. 20μ liters carrageenan (3%, in normal saline pH 7.2) was injected intramuscularly deep into the left gastronemius muscle. Normal saline was used as a control. Injections were carried out on days 1 and 5. Behavioral nociceptive responses were measured on days 1, 2, 5 (before and after injection), 14 and 28. Mice were placed in a plexi-glass restrainer and allowed to acclimate for 30 minutes prior to testing. Mechanical allodynia was assessed based on the responsiveness of the hind paw to the application of von Frey filaments (Stoelting, Wood Dale, Ill.) to the point of bending. […] Ten trials were carried out each time at an interval of 5 minutes and the results were expressed as a percentage of positive responses. […]

[4] = system: mechanical allodynia in pain model; assay: Oral administration to pain model (rat), mechanical allodynia; type: in vivo; conditions: 1 mg/kg/3 ml, as compared with the response to gabapentin

Row | SMILES | mechanical allodynia in combined chronic inflammatory and neuropathic pain ([1]; 0.1 and 1 mg/kg body weight) | allodynia in neuropathic pain (neuropathic pain) | dose of peak response, licking response of acute muscle inflammatory pain ([2]; dose range 0.1 to 5 mg/kg) [mg/kg body weight] | licking response of acute muscle inflammatory pain ([2]; dose range of 0.1 to 5 mg/kg bodyweight, intra-peritoneally 30 minutes before formalin, P<0.001) | mechanical allodynia in chronic inflammatory muscle pain, comparison of dosages ([3]; 1 mg/kg versus 0.1 mg/kg) | mechanical allodynia in chronic inflammatory muscle pain ([3]; 0.1 and 1 mg/kg body weight, von Frey filament) | mechanical allodynia in combined chronic inflammatory and neuropathic pain ([1]; 0.1 mg/kg and 1.1 mg/kg body weight) | mechanical allodynia after oral administration [4]
1 | Nc1ncnc2c1ncn2CCNCCCCCO [HTS09836] | significantly reduced | significantly reduced | 1 | significant reduction | superior effect | significant reduction in mechanical allodynia | – | –
2 | Nc1ncnc2c1ncn2CCNCCCCCO [NB001] | – | – | – | – | – | – | significantly reduced | significant reduction in mechanical allodynia

Reference: patent US8124599B2, “Method for treating neuronal and non-neuronal pain” (priority 2005, dated 2012)
